Data published in patent US10471127B2, “Peptide pharmaceuticals for insulin resistance” (Mederis Diabetes, LLC, priority 2011, dated 2019).

Columns and labels:
[1] = in water; cited from earlier work
[2] = biological target: T1, glucagon R (Homo sapiens, UniProt P47871); assay: glucagon cellular assay, stimulation of cAMP levels (Cerep SA); assay type: cell-based; settings: cAMP generated in cells; n.c. means EC50 not calculable
T1 construct: Cerep SA
T1 sequence (P47871 26-477): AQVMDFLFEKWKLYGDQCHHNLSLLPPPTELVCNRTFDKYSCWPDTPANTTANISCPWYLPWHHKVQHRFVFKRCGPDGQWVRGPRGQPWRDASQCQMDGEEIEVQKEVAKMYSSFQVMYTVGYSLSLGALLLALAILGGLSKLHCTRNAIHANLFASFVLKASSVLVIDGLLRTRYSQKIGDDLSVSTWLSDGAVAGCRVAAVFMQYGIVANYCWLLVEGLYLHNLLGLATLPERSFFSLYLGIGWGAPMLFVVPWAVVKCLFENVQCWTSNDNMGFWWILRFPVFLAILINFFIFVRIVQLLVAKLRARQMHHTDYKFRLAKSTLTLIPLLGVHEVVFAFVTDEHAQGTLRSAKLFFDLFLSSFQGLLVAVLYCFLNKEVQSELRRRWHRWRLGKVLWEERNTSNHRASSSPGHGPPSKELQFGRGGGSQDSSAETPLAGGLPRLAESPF
Description: Compounds were weighed precisely in an amount of approximately 1 mg and assayed in standard cellular assays (Cerep SA). The readout is the amount of cAMP generated in the cells treated with the test compounds, in either agonist or antagonist mode.

Molecule	CMC [1]	EC50 [2]
CCCCCCCCCCCCCCO[C@@H]1O[C@H](CO)[C@@H](O[C@@H]2O[C@@H](CO)[C@H](O)[C@@H](O)[C@@H]2O)[C@H](O)[C@H]1O (stereo in doubt) [Tetradecyl maltoside]	0.01 mM	
CCCCCCCCCCCCCO[C@@H]1O[C@H](CO)[C@@H](OC2OC(CO)C(O)C(O)C2O)[C@H](O)[C@H]1O (stereo in doubt) [Tridecyl maltoside]	0.03 mM	
CCCCCCCCCCO[C@@H]1O[C@H](CO)[C@@H](O[C@H]2O[C@H](CO)[C@@H](O)[C@H](O)[C@H]2O)[C@H](O)[C@H]1O [Decyl maltoside]	1.8 mM	
CCCCCCCCCCCCO[C@@H]1O[C@H](CO)[C@@H](O[C@H]2O[C@H](CO)[C@@H](O)[C@H](O)[C@H]2O)[C@H](O)[C@H]1O [Dodecyl-β-D-maltoside]	0.17 mM	
CCCCCCCCCCCCO[C@@H]1O[C@H](C(=O)NCCCC[C@H](NC(=O)[C@@H]2CCCCNC(=O)CC[C@H](NC(=O)[C@H](CC(=O)O)NC(=O)[C@H](CC(C)C)NC(=O)[C@H](Cc3ccc(O)cc3)NC(=O)[C@H](CCCCN)NC(=O)[C@H](CO)NC(=O)[C@H](Cc3ccc(O)cc3)NC(=O)[C@H](CC(=O)O)NC(=O)[C@H](CO)NC(=O)[C@@H](NC(=O)[C@H](Cc3ccccc3)NC(=O)[C@@H](NC(=O)CNC(=O)[C@H](CCC(N)=O)NC(=O)C(C)(C)NC(=O)[C@@H](N)Cc3c[nH]cn3)[C@@H](C)O)[C@@H](C)O)C(=O)N[C@@H](CCCNC(=N)N)C(=O)N[C@@H](C)C(=O)N[C@@H](C)C(=O)N2)C(=O)N[C@@H](Cc2ccccc2)C(=O)NC(C)(C)C(N)=O)[C@@H](O)[C@H](O)[C@H]1O [EU-A455]		770 nM
CCCCCCCCO[C@@H]1O[C@H](CO)[C@@H](O[C@H]2O[C@H](CO)[C@@H](O)[C@H](O)[C@H]2O)[C@H](O)[C@H]1O [Octyl maltoside]	19.5 mM	
Sucrose dodecanoate	0.3 mM	
